Where only a bound is given, the exact number is not on record here.

A short description of series [1]: Weight of KO mice lacking the TAZ gene (mouse model of Barth syndrome). It is filed as in vivo. To be noted: 10 mg/kg force-fed twice a day from age 51 days, 1 month; vs solvent. Here is the method: Mice lacking the TAZ gene (KO model of Barth syndrome) or wild type (WT) gene were force-fed twice a day with 10 mg/kg of Ebselen as of an age of 51 days. The weight was regularly monitored during 1 month of treatment.

Series [2] has as its system fibroblasts of TAZ patients. The series can be described thus: Mitochondrial ATP level in fibroblasts of TAZ patients (CellTiter-Glo). It is filed as cell-based, human. Particulars: EBS 12.15 nM for 96 hours. Here is the method: The levels of mitochondrial ATP in the fibroblasts of TAZ patients were evaluated using a Promega CellTiter-Glo kit. The cells in 96 well plates (5000/well) were treated or not treated with 12.15 nM of EBS for 96 hours then were incubated in the presence of Antimycin A (100 μM), of Rotenone (0.5 μM) or oligomycin A (3 μM).
A general note: ATP-based viability assays read luminescence as a measure of living cells.

A further series has as its system HeLa KO FMC1. The series can be described thus: Proliferation of HeLa KO FMC1 cell line (SRB). The series is classed as cell-based, human. To be noted: glucose 1 g/L or galactose; 96 hours; dose-dependent, wide range of concentrations (pM to μM). Here is the method: The cell line HeLa KO FMC1, mimicking human illnesses related to a deficiency of ATP synthase (NARP, MILS syndromes), were generated by the CRISPR-Cas9 method. The cell line HeLa KO FMC1 was cultivated in a DMEM medium containing 4.5 g/L of glucose and 110 mg/l of pyruvate and 50 mg/l of uridine.
The rate of proliferation of this HeLa cell line in which the gene FMC1 was deleted was measured in a medium containing either a low concentration of glucose (1 g/L), or of galactose in micro-plates of 384 wells (4500 cells/cm^2 at T0) using the Sulforhodamine B (SRB) staining protocol 96 hours after seeding and treatment of the cells. The bars represent the average of 8 replicates coming from 3 independent experiments.

Series [3] concerns Cox2 protein in mutant strain taz1. In words: Accumulation of Cox2 protein (SDS-PAGE/immunoblot) in taz1. The series is classed as cell-based, Saccharomyces cerevisiae. Particulars: 1 μM of EBS. Here is the method: Total protein extracts from the mutant yeast strain were analyzed by SDS-PAGE ([…] per well) using antibodies against the indicated proteins. The gels shown are representative of at least 3 experiments. Protein levels were quantified using the ImageJ software. The levels of Cox2 were normalized with respect to Ade13p and expressed with respect to the wild type (WT) strain.

Series [4] concerns fibroblast lines of patients carrying mutations of the nuclear gene NDUFV1. In words: Mitochondrial respiration of NDUFV1 patient fibroblasts (Seahorse XF96). The series is classed as cell-based, human. To be noted: 48 h exposure. Here is the method: EBS was also tested for the ability thereof to restore mitochondrial respiration of fibroblast lines of patients carrying mutations of the nuclear gene NDUFV1 of mitochondrial complex I. The human lines NDUFV1 mimicking the human illnesses related to a mitochondrial deficit of complex I (Leigh's syndrome) are carriers of genetic mutations affecting the gene NDUFV1. These cell lines were cultivated in a DMEM medium containing 1.0 g/L of glucose and 1 mM of sodium pyruvate and 50 μg/ml of uridine (Sigma Aldrich, Lyon, France).
The respiration was measured using a Seahorse XF96 extracellular flow metabolic analyzer in 96 well plates according to the manufacturer's protocol (Agilent Technologies). Deficient cells were exposed for 48 h to different concentrations with a dose response curve associating a range of concentrations from 25 nM to 10 μM. […]
The measurement of the oxygen consumption rate (OCR) was recorded under basal conditions to evaluate the mitochondrial respiratory activity and then the cells were treated sequentially with 4 μg/mL of oligomycin and 1.5 μM of carbonyl cyanide p-(trifluoromethoxy) phenylhydrazone (FCCP) (Sigma-Aldrich). The basal OCR, the respiration related to ATP, the maximum respiratory capacity and the respiration by proton leak were determined. […] Maximum respiratory capacity has been determined as the rate of respiration in the presence of uncoupling FCCP. […]

The test system of series [5] is myoblasts of a TAZ patient. In words: Growth of myoblasts of TAZ patients (SRB, low glucose, 120 hours). The series is classed as cell-based, human. How it is done:
EBS was also tested for the ability thereof to restore cell growth of a line of myoblasts from patients, carriers of mutations in the TAZ gene. The rate of proliferation was measured in a medium with a weak concentration of glucose in 384 well micro-titration plates (1200 cells/wells at T0) using the Sulforhodamine B (SRB) staining protocol at 48, 72, 96 or 120 hours after placing the cells.

With `O=c1c2ccccc2[se]n1-c1ccccc1` [ebselen, 2-phenyl-1,2-benzisoselenazol-3(2H)-one], the “weight of KO mice” value in series [1] is listed as “seemed to take on more weight”. Also, the “mitochondrial ATP production” value in series [2] was “improves”. Also, the “proliferation of model cells of an ATP synthase deficiency” value with HeLa KO FMC1 is listed as “improves”. The “accumulation of the protein Cox2” value in series [3] is “increases”. The toxic concentration in series [4] was over 10 µM. This compound also showed a toxicity concentration in series [5] of over 78.3 µM. Further, in series [5] (vs DMSO), the concentration range with beneficial effects on growth, lower limit is at least 450 nM and the “concentration range with beneficial effects on growth, upper limit” value is at most 8.7 µM.

(Values after patent US20260000645A1, “USE OF EBSELEN OR ONE OF THE DERIVATIVES THEREOF TO TREAT MITOCHONDRIAL PATHOLOGIES OR DYSFUNCTIONS” (ASSOCIATION FRANCAISE CONTRE LES MYOPATHIES, priority 2022, published 2026).)
